Calls of active or inactive are those of the source. The rule behind the calls is not given here.
How the values were obtained:
N2a [1] = assay: Neuroprotective activity against OGD/R induced cell injury in mouse N2a cells assessed as cell viability at 10 uM preincubated under hypoxic condition for 2 hrs and measured after 24 hrs (reference value: 28.66 to 30.22 %); type: functional; conditions: time 26 hrs, read-out: Activity
[2] = Half-life in Sprague-Dawley rat at 10 mg/kg, po measured upto 8 hrs by LC-MS/MS analysis; type: ADME, organism-based; conditions: in vivo; for half-life: Sprague-Dawley
[3] = AUC(0 to t) in Sprague-Dawley rat at 10 mg/kg, po measured upto 8 hrs by LC-MS/MS analysis; type: ADME, organism-based; conditions: in vivo
[4] = Cmax in Sprague-Dawley rat at 10 mg/kg, po measured upto 8 hrs by LC-MS/MS analysis; type: ADME, organism-based; conditions: in vivo
[5] = Tmax in Sprague-Dawley rat at 10 mg/kg, po measured upto 8 hrs by LC-MS/MS analysis; type: ADME, organism-based; conditions: in vivo
[6] = AUC(0 to infinity) in Sprague-Dawley rat at 10 mg/kg, po measured upto 8 hrs by LC-MS/MS analysis; type: ADME, organism-based; conditions: in vivo; for AUC(0-inf): Sprague-Dawley
[7] = AUC(0 to t) in ICR mouse at 1 mg/kg, iv measured upto 8 hrs by LC-MS/MS analysis; type: ADME, organism-based; conditions: in vivo
[8] = Metabolic stability in mouse liver microsomes assessed as half life at 50 uM preincubated with NADPH for 5 mins followed by compound addition and measured upto 60 mins by LC-MS/MS analysis; type: ADME, Microsome
N2a [9] = assay: Neuroprotective activity against OGD/R induced cell injury in mouse N2a cells assessed as decrease in caspase-3 activity incubated for 24 hrs; type: functional, cell-based; conditions: dose 0.1-100 µM
[10] = Cmax in ICR mouse at 1 mg/kg, iv measured upto 8 hrs by LC-MS/MS analysis; type: ADME, organism-based; conditions: in vivo
Mus musculus [11] = assay: Neuroprotective activity against tMCAO-reperfusion induced brain injury in SPF C57 mouse model assessed as reduction in brain water content at 30 mg/kg, iv measured after 24 hrs; type: functional, organism-based
Mus musculus [12] = assay: Neuroprotective activity against tMCAO-reperfusion induced brain injury in SPF C57 mouse model assessed as reduction in infarct volume at 30 mg/kg, iv measured after 24 hrs (reference value: 41.48%); type: functional; design: scale not given: the % may be the effect or the level left
[13] = Metabolic stability in mouse liver microsomes assessed as intrinsic clearance at 50 uM preincubated with NADPH for 5 mins followed by compound addition and measured upto 60 mins by LC-MS/MS analysis; type: ADME, Microsome; conditions: read-out: CLH
Mus musculus [14] = assay: Neuroprotective activity against tMCAO-reperfusion induced brain injury in SPF C57 mouse model assessed as reversal of reduced blood flow in semi-dark band area infarct volume at 3 to 30 mg/kg, iv measured after 24 hrs; type: functional, organism-based; conditions: dose 3-30 mg/kg
Mus musculus [15] = assay: Neuroprotective activity against tMCAO-reperfusion induced brain injury in iv dosed SPF C57 mouse model assessed as decrease in cytochrome C expression measured after 24 hrs by Western blotting analysis; type: functional, organism-based; conditions: dose 3-30 mg/kg
Mus musculus [16] = assay: Neuroprotective activity against tMCAO-reperfusion induced brain injury in iv dosed SPF C57 mouse model assessed as reduction in infarction region measured after 24 hrs; type: functional, organism-based; conditions: dose 3-30 mg/kg
[17] = Metabolic stability in dog liver microsomes assessed as half life at 50 uM preincubated with NADPH for 5 mins followed by compound addition and measured upto 60 mins by LC-MS/MS analysis; type: ADME, Canis lupus familiaris, Microsome
[18] = Cmax in Sprague-Dawley rat at 10 mg/kg, po measured at 2 hrs by LC-MS/MS analysis; type: ADME, organism-based; conditions: in vivo
[19] = Metabolic stability in monkey liver microsomes assessed as intrinsic clearance at 50 uM preincubated with NADPH for 5 mins followed by compound addition and measured upto 60 mins by LC-MS/MS analysis; type: ADME, Macaca mulatta, Microsome; conditions: rhesus monkey, read-out: CLH
[20] = Metabolic stability in human liver microsomes assessed as intrinsic clearance at 50 uM preincubated with NADPH for 5 mins followed by compound addition and measured upto 60 mins by LC-MS/MS analysis; type: ADME, Microsome; conditions: read-out: CLH
[21] = AUC(0 to infinity) in ICR mouse at 1 mg/kg, iv measured upto 8 hrs by LC-MS/MS analysis; type: ADME, organism-based; conditions: in vivo
N2a [22] = assay: Neuroprotective activity against OGD/R induced cell membrane integrity loss in mouse N2a cells assessed as reduction in LDH release at 0.1 to 100 uM incubated for 24 hrs; type: functional, cell-based; conditions: dose 0.1-100 µM
[23] = AUC(0 to t) in Sprague-Dawley rat at 10 mg/kg, po measured at 2 hrs by LC-MS/MS analysis; type: ADME, organism-based; conditions: in vivo
Mus musculus [24] = assay: Neuroprotective activity against tMCAO-reperfusion induced brain injury in SPF C57 mouse model assessed as reduction in infarct volume at 10 mg/kg, iv measured after 24 hrs; type: functional; design: scale not given: the % may be the effect or the level left
[25] = Tmax in ICR mouse at 10 mg/kg, po measured upto 8 hrs by LC-MS/MS analysis; type: ADME, organism-based; conditions: in vivo
N2a [26] = assay: Neuroprotective activity against OGD/R induced cell injury in mouse N2a cells assessed as reduction in apoptosis at 0.1 to 100 uM incubated for 24 hrs by TUNEL assay; type: functional, cell-based; conditions: dose 0.1-100 µM
[27] = Tmax in ICR mouse at 1 mg/kg, iv measured upto 8 hrs by LC-MS/MS analysis; type: ADME, organism-based; conditions: in vivo
[28] = AUC(0 to infinity) in ICR mouse at 10 mg/kg, po measured upto 8 hrs by LC-MS/MS analysis; type: ADME, organism-based; conditions: in vivo
[29] = Cmax in ICR mouse at 10 mg/kg, po measured upto 8 hrs by LC-MS/MS analysis; type: ADME, organism-based; conditions: in vivo
[30] = Metabolic stability in monkey liver microsomes assessed as half life at 50 uM preincubated with NADPH for 5 mins followed by compound addition and measured upto 60 mins by LC-MS/MS analysis; type: ADME, Macaca mulatta, Microsome; conditions: rhesus monkey
Mus musculus [31] = assay: Neuroprotective activity against photo-thrombotic SPF C57 mouse model assessed as improvement in motor function at 30 mg/kg, po administered daily for 7 days; type: functional, organism-based; conditions: time 7.0 day
Mus musculus [32] = assay: Neuroprotective activity against tMCAO-reperfusion induced brain injury in iv dosed SPF C57 mouse model assessed as decrease in Bax expression measured after 24 hrs by Western blotting analysis; type: functional, organism-based; conditions: dose 3-30 mg/kg
Mus musculus [33] = assay: Neuroprotective activity against tMCAO-reperfusion induced brain injury in iv dosed SPF C57 mouse model assessed as decrease in cleaved caspase-3 expression measured after 24 hrs by Western blotting analysis; type: functional, organism-based; conditions: dose 3-30 mg/kg
[34] = Oral bioavailability in ICR mouse at 10 mg/kg measured upto 8 hrs by LC-MS/MS analysis; type: ADME, organism-based; conditions: in vivo
[35] = Metabolic stability in dog liver microsomes assessed as intrinsic clearance at 50 uM preincubated with NADPH for 5 mins followed by compound addition and measured upto 60 mins by LC-MS/MS analysis; type: ADME, Canis lupus familiaris, Microsome; conditions: read-out: CLH
[36] = Metabolic stability in human liver microsomes assessed as half life at 50 uM preincubated with NADPH for 5 mins followed by compound addition and measured upto 60 mins by LC-MS/MS analysis; type: ADME, Microsome
[37] = Metabolic stability in rat liver microsomes assessed as intrinsic clearance at 50 uM preincubated with NADPH for 5 mins followed by compound addition and measured upto 60 mins by LC-MS/MS analysis; type: ADME, Microsome; conditions: read-out: CLH
[38] = Metabolic stability in rat liver microsomes assessed as half life at 50 uM preincubated with NADPH for 5 mins followed by compound addition and measured upto 60 mins by LC-MS/MS analysis; type: ADME, Microsome
N2a [39] = assay: Neuroprotective activity against OGD/R induced cell injury in mouse N2a cells assessed as inhibition of cell damage at 0.1 to 100 uM incubated for 24 hrs; type: functional, cell-based; conditions: dose 0.1-100 µM
Mus musculus [40] = species on record: Mus musculus; assay: Neuroprotective activity against photo-thrombotic SPF C57 mouse model assessed as decrease in sensorimotor impairment measured after day 4 to 7; type: functional, organism-based
Mus musculus [41] = assay: Neuroprotective activity against tMCAO-reperfusion induced brain injury in SPF C57 mouse model assessed as decrease in neurological deficit score at 30 mg/kg, iv measured after 24 hrs; type: functional
Mus musculus [42] = assay: Neuroprotective activity against photo-thrombotic SPF C57 mouse model assessed as change in motor function at 30 mg/kg, po measured after day 1 to 3; type: functional, organism-based
[43] = Half-life in ICR mouse at 10 mg/kg, po measured upto 8 hrs by LC-MS/MS analysis; type: ADME, organism-based; conditions: in vivo
[44] = AUC(0 to t) in ICR mouse at 10 mg/kg, po measured upto 8 hrs by LC-MS/MS analysis; type: ADME, organism-based; conditions: in vivo

CCCCC(O)c1ccccc1-c1nnn(C)n1 (stereo not drawn)
viability at 10 µM (N2a [1]): 43.9% | half-life [2]: 433 min | AUC(0-t) at 8 h [3]: 39.9 ng·h/mL | Cmax ([4]; Sprague-Dawley, read-out: Cmax): 13.1 ng/mL | Tmax ([5]; Sprague-Dawley, read-out: Tmax): 15 min | AUC(0-inf) [6]: 71.5 ng·h/mL

CCCCC(O)c1ccc(Br)cc1-c1nnn(CC)n1 (stereo not drawn)
viability at 10 µM (N2a [1]): 53.6% | Tmax ([5]; Sprague-Dawley, read-out: Tmax): 15 min

CCCCCC(O)c1ccc(Br)cc1-c1nn[nH]n1 (stereo not drawn)
viability at 10 µM (N2a [1]): 38% | AUC(0-t) at 8 h [3]: 2670 ng·h/mL | Cmax ([4]; Sprague-Dawley, read-out: Cmax): 13600 ng/mL | Tmax ([5]; Sprague-Dawley, read-out: Tmax): 15 min

CCCCC(O)c1ccccc1-c1cc[nH]n1 (stereo not drawn)
viability at 10 µM (N2a [1]): 39.5%

CCCCC(O)c1ccc(Br)cc1-c1nnn(CCN(C)C)n1 (stereo not drawn)
viability at 10 µM (N2a [1]): 44%

CCCCC(O)c1ccccc1-c1nn[nH]n1 (stereo not drawn)
viability at 10 µM (N2a [1]): 40.5% | half-life [2]: 279 min | AUC(0-t) at 8 h [3]: 26500 ng·h/mL | Cmax ([4]; Sprague-Dawley, read-out: Cmax): 12200 ng/mL | Tmax ([5]; Sprague-Dawley, read-out: Tmax): 15 min | AUC(0-inf) [6]: 37100 ng·h/mL

CCCCC(O)c1cc(Br)ccc1-c1nn[nH]n1 (stereo not drawn)
viability at 10 µM (N2a [1]): 37.6% | AUC(0-t) at 8 h [3]: 2670 ng·h/mL | Tmax ([5]; Sprague-Dawley, read-out: Tmax): 15 min

CCCCCC(O)c1ccccc1-c1nn[nH]n1 (stereo not drawn)
viability at 10 µM (N2a [1]): 35.6%

CCCCC(O)c1ccc(Br)cc1-c1nn[nH]n1 (stereo not drawn)
AUC(0-t) at 8 h [7]: 550 ng·h/mL | half-life at 50 µM [8]: 15.6 min | Activity (N2a [9]): Dose-Dependent Effect | Cmax [10]: 3760 ng/mL | Activity (Mus musculus [11]): Active | Activity (Mus musculus [12]): 9.59% | viability at 10 µM (N2a [1]): 56.6% | microsomal CLint at 50 µM [13]: 89.1 µL/min/mg | Activity (Mus musculus [14]): Active | Activity (Mus musculus [15]): Dose-Dependent Effect | Activity (Mus musculus [16]): Dose-Dependent Effect | half-life at 50 µM [17]: > 186 min | Cmax [18]: 1070 ng/mL | t1/2 ([2]; po, 10 mg/kg, 8 h): 287 min | microsomal CLint at 50 µM [19]: < 7.4 µL/min/mg | AUC(0-t) at 8 h [3]: 6990 ng·h/mL | microsomal CLint at 50 µM [20]: < 7.4 µL/min/mg | AUC(0-inf) [21]: 550 ng·h/mL | Activity (N2a [22]): Active | AUCt [23]: 5240 ng·h/mL | Activity (Mus musculus [24]): 18.8% | Tmax [25]: 15 min | Activity (N2a [26]): Active | Tmax [27]: 4.8 min | AUC(0-inf) [28]: 5590 ng·h/mL | Cmax [29]: 8710 ng/mL | half-life at 50 µM [30]: > 186 min | Activity (Mus musculus [31]): Active | Activity (Mus musculus [32]): Dose-Dependent Effect | Cmax ([4]; po, 10 mg/kg, 8 h): 1130 ng/mL | Tmax ([5]; po, 10 mg/kg, 8 h): 120 min | Activity (Mus musculus [33]): Dose-Dependent Effect | bioavailability [34]: 94.9% | microsomal CLint at 50 µM [35]: < 7.4 µL/min/mg | AUC ([6]; po, 10 mg/kg, 8 h): 11160 ng·h/mL | half-life at 50 µM [36]: > 186 min | microsomal CLint at 50 µM [37]: 36.3 µL/min/mg | half-life at 50 µM [38]: 38.2 min | Activity (N2a [39]): Active | Activity (Mus musculus [40]): Dose-Dependent Effect | Activity (Mus musculus [41]): 2.07 | Activity (Mus musculus [42]): Active | half-life [43]: 30.6 min | AUC(0-t) at 8 h [44]: 5240 ng·h/mL

Source: ChEMBL document CHEMBL5579827, “Discovery of orally bioavailable phenyltetrazolium derivatives for the acute treatment and the secondary prevention of ischemic stroke” (Eur J Med Chem, 2024)
